Laboratory results from patent US20230321067A1, “DOSING REGIMEN COMPRISING 3-(1-OXOISOINDOLIN-2-YL)PIPERIDINE-2,6-DIONE DERIVATIVES” (Novartis AG, priority 2020, published 2023).
Values joined by “and” are separate entries in the source; they are usually repeats but may differ in a detail not shown here. Equal values may be shown once. “Also recorded” adds a separate entry of the source.

Legend:
[1] = test system: IKZF2; experiment: Degradation of IKZF2 in primary PBMCs, cynomolgus monkey (FIG. 3); format: cell-based
Excerpt: FIG. 3. is a bar graph showing the degradation of IKZF2 in primary PBMCs obtained from rabbit, dog, pig, cynomolgus monkey and human, and in primary splenocytes of mouse and rat and treated with Compound I-57.

[2] = test system: IKZF2; experiment: IKZF2 degradation in primary rabbit PBMCs; format: cell-based
Method: (§1) I-57 mediated degradation of IKZF2 was assessed in primary PBMCs obtained from rabbit, dog, pig, cynomolgus monkey, and human, and in primary splenocytes of mouse and rat. […] Species-specificity due to species specific alteration CRBN primary structure have previously been described with other compounds known to interact with the CRBN ubiquitin ligase complex to elicit protein specific degradation (Krönke et al, 2015).

[3] = Repeated oral dose PK in MDA-MB231 xenograft human PBMC adoptive transfer model; format: in vivo, NSG mice; details: hPBMC AdT mouse
Method: The PK/PD relationship of I-57 was examined in the hPBMC AdT model system. Human PBMCs were adoptively transferred into female NSG mice harboring established MDA-MB231 xenografts (FIG. 6). This model was selected based on the observation that IKZF2 positive Tregs (CD4+FOXP3+) were readily identifiable in peripheral blood and infiltrated in the tumor xenografts.
Mice were administered I-57 daily for 14 consecutive days at the doses shown. Longitudinal I-57 plasma concentrations were assessed (Table 14).

[4] = In vivo non-clinical PK, rat
Method: (§2) The in vivo non-clinical PK profile of I-57 was investigated in mouse, rat, dog and cynomolgus monkey using I-57 free base. […] After p.o. administration, the absorption of I-57 was rapid with peak blood concentration (Tmax) occurring between 1 and 4 hours. […] In high dose PK and toxicology studies with I-57 the exposures in mouse, rat and monkey increased with dose.

[5] = In vivo non-clinical PK, monkey; parameters: species or system cynomolgus monkey
Method: as §2

[6] = test system: plasma protein; experiment: Plasma protein binding in vitro, mouse; format: in vitro ADME
Excerpt: (§3) The binding to plasma protein of I-57 in vitro was moderate in all species, with an observed difference between rodents (73% in mouse, 76% in rat) and non-rodents (52% in dog and monkey, 54% in human). Blood-to-plasma ratios were in the range of 0.7-1.8 (human 1.1-1.3). […] Based on results with non-radiolabeled I-57 in the dog, a significant amount of unchanged I-57 was renally eliminated (˜20% of dose).

[7] = test system: plasma protein; experiment: Plasma protein binding in vitro, human; format: in vitro ADME
Excerpt: as §3

[8] = Blood-to-plasma ratio, human; format: in vitro ADME
Excerpt: as §3

[9] = biological target: CYP2B6 (Homo sapiens, UniProt P20813); experiment: CYP inhibition: CYP2B6; format: in vitro ADME; details: I-57 concentrations of up to 100 μM
[10] = Toxicology studies: CNS and respiratory signs; format: in vivo
Excerpt: The non-clinical safety profile of I-57 was established in vitro, and in vivo in rats and cynomolgus monkeys in studies up to 4-weeks duration. Based on the outcome of these studies, QTc interval prolongation was identified as the principal safety signal for I-57. There were other toxicities such as diarrhea and vomiting in monkeys, and mortality, clinical signs and target organ toxicities in rats; however, these occurred at exposures far above those expected to result in clinical activity.

[11] = biological target: T1, IKZF2 (Homo sapiens, UniProt Q96SW2+Q9UKS7); experiment: IKZF2 degradation in primary human PBMCs; format: cell-based; parameters: endogenous in cells; host or cells: primary human PBMCs
Excerpt: Although the specific transcriptional targets of IKZF2 remain to be defined, IKZF2 binds to and represses transcription from the IL-2 promoter region (Baine 2013). […] Finally, an in vitro assay recapitulating hallmarks of T cell dysfunction/exhaustion, by sequential TCR stimulation of isolated primary human T cells, was used to test the hypothesis that […] would rescue the exhausted phenotype and enhance Teff cell activity. […] In addition to IKZF1, other known cereblon substrates including translation termination factor G1 to S phase transition 1 (GSPT1) are not degraded by I-57 (FIG. 1).
as §1

[12] = biological target: T1, IKZF2; experiment: IKZF2 in tumor-infiltrating lymphocytes by IHC, hPBMC AdT model; format: in vivo, NSG mice with human PBMCs; parameters: endogenous in cells; host or cells: human lymphocytes (CD4+FOXP3+ Tregs; total tumor-infiltrating lymphocytes) from healthy-donor PBMC transferred into NSG mice; details: 24 h post the 14th dose
Method: IKZF2 protein levels in total tumor-infiltrating lymphocytes were also assessed by immunohistochemistry (IHC) at 24 h post the 14th dose of 1, 3 or 30 mg/kg I-57. […] Overall, IKZF2 degradation assessed by IHC was generally consistent with our findings in Tregs by flow cytometry, though dose dependency was less apparent. Together, the data support the finding of profound I-57-mediated IKZF2 degradation in tumor-infiltrating lymphocytes (FIG. 8A and FIG. 8B).

[13] = female, NSG, mouse, plasma, po, 0.3 mg/kg, unbound, post 1st dose, p.o. 0.3 mg/kg daily
[14] = female, NSG, mouse, plasma, po, 0.3 mg/kg, unbound, post 13th dose, p.o. 0.3 mg/kg daily
[15] = female, NSG, mouse, plasma, po, 1 mg/kg, unbound, post 1st dose, p.o. 1 mg/kg daily
[16] = female, NSG, mouse, plasma, po, 1 mg/kg, unbound, post 13th dose, p.o. 1 mg/kg daily
[17] = female, NSG, mouse, plasma, po, 3 mg/kg, unbound, post 1st dose, p.o. 3 mg/kg daily
[18] = female, NSG, mouse, plasma, po, 3 mg/kg, unbound, post 13th dose, p.o. 3 mg/kg daily
[19] = female, NSG, mouse, plasma, po, 30 mg/kg, unbound, post 1st dose, p.o. 30 mg/kg daily
[20] = female, NSG, mouse, plasma, po, 30 mg/kg, unbound, post 13th dose, p.o. 30 mg/kg daily

T1 sequence (Q9UKS7 whole entry): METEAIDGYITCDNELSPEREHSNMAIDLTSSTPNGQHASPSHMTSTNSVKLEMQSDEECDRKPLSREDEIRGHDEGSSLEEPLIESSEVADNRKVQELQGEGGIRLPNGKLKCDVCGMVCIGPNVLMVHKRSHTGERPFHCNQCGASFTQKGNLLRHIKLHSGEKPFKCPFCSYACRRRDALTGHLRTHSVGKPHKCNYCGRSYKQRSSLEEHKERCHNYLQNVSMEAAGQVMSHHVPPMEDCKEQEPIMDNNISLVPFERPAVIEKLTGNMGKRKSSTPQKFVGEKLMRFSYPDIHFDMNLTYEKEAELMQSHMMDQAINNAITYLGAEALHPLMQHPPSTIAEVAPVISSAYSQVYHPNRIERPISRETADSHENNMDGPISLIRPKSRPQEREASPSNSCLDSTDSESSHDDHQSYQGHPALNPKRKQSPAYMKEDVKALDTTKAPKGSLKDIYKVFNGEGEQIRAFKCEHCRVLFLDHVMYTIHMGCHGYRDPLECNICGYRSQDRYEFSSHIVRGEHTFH
T1 sequence (Q96SW2 whole entry): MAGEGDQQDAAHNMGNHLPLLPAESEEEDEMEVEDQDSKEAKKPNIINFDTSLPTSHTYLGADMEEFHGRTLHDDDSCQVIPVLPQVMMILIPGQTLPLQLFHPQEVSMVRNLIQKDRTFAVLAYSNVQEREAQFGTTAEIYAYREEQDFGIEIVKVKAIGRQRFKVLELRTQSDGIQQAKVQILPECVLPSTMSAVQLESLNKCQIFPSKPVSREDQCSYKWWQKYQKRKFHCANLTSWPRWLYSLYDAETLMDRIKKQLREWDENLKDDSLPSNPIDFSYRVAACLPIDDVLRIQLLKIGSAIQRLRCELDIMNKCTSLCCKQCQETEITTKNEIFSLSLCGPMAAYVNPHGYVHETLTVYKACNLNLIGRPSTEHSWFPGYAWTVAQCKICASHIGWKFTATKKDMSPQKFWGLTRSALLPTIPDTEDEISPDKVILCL
T1 sequence (Q16531 whole entry partner): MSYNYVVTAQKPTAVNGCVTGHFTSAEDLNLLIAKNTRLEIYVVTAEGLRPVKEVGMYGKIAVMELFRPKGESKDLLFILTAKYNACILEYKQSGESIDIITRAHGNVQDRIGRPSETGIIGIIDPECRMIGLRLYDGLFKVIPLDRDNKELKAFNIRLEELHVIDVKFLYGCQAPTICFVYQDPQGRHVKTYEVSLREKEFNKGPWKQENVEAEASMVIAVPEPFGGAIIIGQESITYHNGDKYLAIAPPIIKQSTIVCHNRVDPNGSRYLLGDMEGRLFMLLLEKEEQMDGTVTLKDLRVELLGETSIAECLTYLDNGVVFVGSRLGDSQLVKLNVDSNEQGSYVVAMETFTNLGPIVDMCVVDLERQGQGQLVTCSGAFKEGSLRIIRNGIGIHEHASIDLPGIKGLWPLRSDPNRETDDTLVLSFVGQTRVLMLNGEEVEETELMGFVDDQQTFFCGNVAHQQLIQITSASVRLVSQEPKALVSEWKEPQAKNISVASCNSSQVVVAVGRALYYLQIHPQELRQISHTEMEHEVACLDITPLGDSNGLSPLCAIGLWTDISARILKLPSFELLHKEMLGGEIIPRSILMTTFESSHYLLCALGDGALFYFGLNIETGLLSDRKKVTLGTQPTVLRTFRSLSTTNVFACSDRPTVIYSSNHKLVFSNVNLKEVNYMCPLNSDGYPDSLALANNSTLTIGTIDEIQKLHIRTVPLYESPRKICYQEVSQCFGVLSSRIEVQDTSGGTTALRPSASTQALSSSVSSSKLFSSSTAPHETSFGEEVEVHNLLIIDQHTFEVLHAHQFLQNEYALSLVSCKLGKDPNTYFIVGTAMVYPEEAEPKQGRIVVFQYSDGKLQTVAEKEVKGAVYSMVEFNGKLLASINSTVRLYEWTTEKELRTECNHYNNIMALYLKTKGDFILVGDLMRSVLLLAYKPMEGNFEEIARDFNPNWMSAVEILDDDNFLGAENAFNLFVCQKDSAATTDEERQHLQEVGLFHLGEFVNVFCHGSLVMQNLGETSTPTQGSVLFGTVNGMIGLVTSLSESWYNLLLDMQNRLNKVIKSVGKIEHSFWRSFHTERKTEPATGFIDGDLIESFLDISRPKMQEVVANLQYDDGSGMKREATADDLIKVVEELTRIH
Sequence of CYP2B6 (P20813 whole entry): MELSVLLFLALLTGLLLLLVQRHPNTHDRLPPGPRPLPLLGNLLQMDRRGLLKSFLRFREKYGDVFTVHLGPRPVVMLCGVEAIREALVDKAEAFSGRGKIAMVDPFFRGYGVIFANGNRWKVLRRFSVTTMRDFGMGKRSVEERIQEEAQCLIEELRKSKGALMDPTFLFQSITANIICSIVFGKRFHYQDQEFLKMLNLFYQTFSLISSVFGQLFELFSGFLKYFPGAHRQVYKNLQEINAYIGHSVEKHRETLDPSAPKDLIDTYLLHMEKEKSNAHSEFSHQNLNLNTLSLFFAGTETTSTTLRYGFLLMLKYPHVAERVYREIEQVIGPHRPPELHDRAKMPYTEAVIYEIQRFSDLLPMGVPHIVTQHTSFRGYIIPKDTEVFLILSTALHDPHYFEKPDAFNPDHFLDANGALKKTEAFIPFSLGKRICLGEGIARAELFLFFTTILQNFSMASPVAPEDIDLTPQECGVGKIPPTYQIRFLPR

With `O=C1CCC(N2Cc3cc(C4CCN(Cc5ccccc5)CC4)ccc3C2=O)C(=O)N1` (centres unmarked) [Compound I-57, 3-(5-(1-benzylpiperidin-4-yl)-1-oxoisoindolin-2-yl)piperidine-2,6-dione] as the compound, how does the “degradation of IKZF2” value [1] read?
Its value is “degradation was observed”.

And the “degradation of IKZF2” value [2]?
The value was “Degradation was observed”.

What about the AUC(0-inf) [3, 13] of the same compound?
Its AUC(0-inf) is 7.1 ng·h/mL.

What about the Cmax [3, 13] of the same compound?
The Cmax was 2.9 ng/mL.

What about the AUC(0-inf) [3, 14] of the same compound?
Its AUC(0-inf) is 7.5 ng·h/mL.

And the Cmax [3, 14]?
Its Cmax is 1.1 ng/mL.

What about the AUC(0-inf) [3, 15] of the same compound?
Its AUC(0-inf) is 30 ng·h/mL.

And the Cmax [3, 15]?
The Cmax was 8.8 ng/mL.

What about the AUC(0-inf) [3, 16] of the same compound?
Its AUC(0-inf) is 20 ng·h/mL.

What about the Cmax at 13 days [3, 16] of the same compound?
The Cmax at 13 days was 4.6 ng/mL.

And the AUC(0-inf) [3, 17]?
Its AUC(0-inf) is 157 ng·h/mL.

And the Cmax [3, 17]?
Its Cmax is 53 ng/mL.

What about the AUC(0-inf) [3, 18] of the same compound?
The AUC(0-inf) was 92 ng·h/mL.

What about the Cmax [3, 18] of the same compound?
Its Cmax is 27 ng/mL.

And the AUC(0-inf) [3, 19]?
The AUC(0-inf) was 3470 ng·h/mL.

What about the Cmax [3, 19] of the same compound?
Its Cmax is 1250 ng/mL.

What about the AUC(0-inf) [3, 20] of the same compound?
The AUC(0-inf) was 4270 ng·h/mL.

And the Cmax [3, 20]?
Its Cmax is 1300 ng/mL.

What about the “dose proportionality of AUC and Cmax” value ([3]; between 3 and 30 mg/kg) of the same compound?
Its value is “over-dose proportional increase”.

What about the “change in exposure by repeated dosing” value ([3]; daily dosing) of the same compound?
The value was “No significant increase in exposure”.

And the “dose proportionality of AUC and Cmax” value ([3]; from 0.3 to 3 mg/kg)?
Its value is “dose proportional increase”.

What about the “dose proportionality of AUC” value ([4]; between 3 mg/kg and 300 mg/kg) of the same compound?
The value was “roughly dose proportional”.

And the bioavailability ([4]; blood, po)?
The bioavailability was 90%.

And the “dose proportionality of AUC” value ([5]; above 100 mg/kg)?
Its value is “less than dose proportional”.

What about the “dose proportionality of AUC” value ([5]; between 10 mg/kg and 100 mg/kg) of the same compound?
Its value is “slightly over-proportional”.

And the bioavailability ([5]; cynomolgus monkey, blood, po)?
Its bioavailability is 89%.

What about the “binding to plasma protein” value [6] of the same compound?
The value was 73%.

And the “binding to plasma protein” value [7]?
The value was 54%.

What about the blood plasma ratio [8] of the same compound?
The blood plasma ratio was 1.1 to 1.3.

What about the “inhibition of CYP2B6” value [9] of the same compound?
Its value is “very little and no inhibition”.

And the “CNS or respiratory signs” value [10]?
The value was “no CNS or respiratory signs”.

What about the DC50 ([11]; human PBMC, read-out: AC50 for IKZF2 degradation (converted)) of the same compound?
The DC50 was ~4 nM and ~4.07 nM.

And the “degradation of IKZF2” value ([11]; primary human PBMCs in vitro)?
The value was “potent degradation; also recorded: Degradation was observed”.

And the “IKZF2 degradation in total tumor-infiltrating lymphocytes” value ([12]; 30 mg/kg)?
The value was “approximately 85%”.

And the “IKZF2 levels in total tumor-infiltrating lymphocytes” value ([12]; all dose levels (1, 3 or 30 mg/kg))?
The value was “Robust reduction in IKZF2 levels”.
